# Patent US20080118437A1, “Diagnosis and treatment O prostate cancer” (Regents of the University of Michigan, priority 2006, published 2008)
# Columns and labels:
# PC-3Luc cells = assay: WST-1 proliferation assay with hrCCL2 and anti-CCL2 antibodies; assay type: cell-based, human; conditions: 72 hours, antibodies 30 μg/mL
# Protocol: Cells were seeded at a density of 1×10^5 cells/ml for PC-3Luc cells in a 96 well plate in RPMI+10% FBS (FCS is mentioned in previous section). Twenty-four hours after seeding, media was changed to either serum-free RPMI or RPMI+10% FBS. Cell growth was determined 72 hours later using the WST-1 assay (Pierce Biotech, Inc.) following the manufacturer's instructions.
# VCaP xenografts = assay: VCaP subcutaneous xenograft model of tumorigenesis; assay type: in vivo, male SCID mice
# Protocol: Xenograft tumors were established as previously described (Loberg et al., Urol Oncol 24 (2006) 161-168). Briefly, male SCID mice (5-6 weeks of age) were injected subcutaneously in the flank with 1×10^6 VCaP cells in 200 μL Matrigel (BD Biosciences, Inc.). Tumor volumes were calculated by caliper measurement performed weekly to monitor and track tumor growth (tumor volume=L×W×W×0.56). […] Mice were treated with 2 mg/Kg antibody twice weekly by intraperitoneal injection, beginning on Day 28 and for the remainder of the study.
# Xenograft tumors were harvested and placed in fresh 10% formalin. Tumors were paraffin-embedded and 5 μm sections were cut and placed on glass slides. Hematoxylin and eosin stain was performed per the manufacturer's instructions (Sigma, Inc.). Identification of neovascularization was accomplished by labeling with an anti-CD31 antibody and macrophage infiltration was identified using an anti-CD68 antibody. Tissue sections were incubated for 10 minutes in citrate buffer, pH 6.0 and microwaved. Sections were incubated with anti-CD31 (DakoCytomation, Inc.; 1:50) or anti-CD68 (DaKoCytomation, Inc.; 1:1600) for 30 minutes and detected with LSAB+detection/DAB (3,3′-Diaminobenzidine; Sigma, Inc.) for 5 minutes. Slides were dipped in hematoxylin for 1 second as a counterstain.
# [1] = test system: HDMVEC (human dermal microvacular endothelial cells); assay: Endothelial tube formation assay in VCaP conditioned media; assay type: cell-based; conditions: 30 μg/mL in VCaP conditioned media; vs isotype control antibody
# Protocol: In vitro tube formation was performed as previously described (Zhou et al., Int J Cancer 110 (2004) 800-806). Growth factor reduced […] was diluted with cold serum-free medium to a concentration of 10 mg/ml. 50 μl of the solution was added to each well of a 96-well plate and allowed to form a gel at 37° C. for 30 min. HDMVEC (human dermal microvacular endothelial cells) cells (150,000 cells/ml) in VCaP conditioned media (VCaP CM) were added to each well and incubated overnight at 37° C. in 5% CO2. […] Under these conditions, EC will form delicate networks of tubes that are detectable within 2-3 h and are fully developed after 8-12 h. After overnight incubation the wells were washed, and the […] and its endothelial tubes were fixed with 3% paraformaldehyde. Tube formation was quantified by counting the number of sprouts that developed per objective field (100×) and assays were performed in triplicate from 3 independent experiments.
substance,measurement,setting,value
CNTO888: human IgG1κ antibody that neutralizes human CCL2,"cell viability (WST-1) as a measure of proliferation, mean ±SD",PC-3Luc cells; CCL2 10 ng/mL,112.52±10.2
same,"cell viability (WST-1) as a measure of proliferation, mean ±SD",PC-3Luc cells; CCL2 100 ng/mL,132.93±17.08
same,attenuation of VCaP subcutaneous tumor growth,VCaP xenografts; 2 mg/Kg twice weekly i.p.,42.2%
same,reduction in tumor volume / tumor growth on Day 50 compared to control antibody,VCaP xenografts; 2 mg/Kg twice weekly i.p. from Day 28 for 3 weeks,42.2%
same,"macrophage infiltration, CD68+ cells, mean ±SD","VCaP xenografts; VCaP xenograft, 2 mg/Kg twice weekly i.p.",9.00±7.94 cells per 100× objective field
same,angiogenesis by CD31 staining of xenograft tumors,VCaP xenografts; compared to isotype controls,decreased the amount of angiogenesis
same,number of capillary-like tubes formed,[1],significantly reduced
